Test results taken from paper PMC8003975 (Cancers, 2021).
Several values for one entry are separate records, joined by “and”; a condition that tells them apart may be missing. Equal entries are not always repeated. Where two headings read alike, the source gives them in different places.

Assays:
JHU029 xenograft = assay: Tumorigenicity assay, HNC xenograft model; format: in vivo, BALB/c athymic nude mice
Method: Figure 6 Therapeutic effect of momordicine-I in JHU029 xenograft model. JHU029 cells (1.5 × 10^6) cells were injected subcutaneously into the flank of nude mice. After the formation of a palpable tumor, mice were randomly divided into three groups (n = 5): Control (without any treatment), BME group (30% BME through drinking water) and M-I group (30 mg/kg IP, once in a day and every day). (A) Body weight was measured in control and treated mice. (B) Representative images of tumors in control and treatment groups. (C) Tumors were measured using a slide caliper and tumor volumes were calculated. Arrow indicates starting point BME/M-I treatment. (D) Control or treated tumor lysates were subjected to Western blot analysis for c-Met and c-Myc expression using specific antibodies and representative bands are shown. The blot was reprobed with an antibody to Actin for normalization. […] Small bar indicates standard error (*, p < 0.05; *** p < 0.001).
(§1) JHU029 or Cal27 cells (1.5 × 10^6) containing 40% Matrigel were injected subcutaneously into the flank of BALB/c athymic nude mice (7–8 weeks old). When the palpable tumor was developed (>60 mm^3), mice were divided into three groups randomly, 5 mice in each group. The control group was without any treatment. The BME group received 30% (v/v) BME through drinking water. M-I group received 30 mg/kg dose of M-I once in day, every day. Body weight was monitored, and tumor size was measured using a slide caliper and volume was calculated using the formula ½ L × W^2. After animal sacrifice tumors were dissected out and snap frozen in liquid nitrogen for further analysis. All the animal experiments were carried out in accordance NIH guidelines, following a protocol approved (1017) by the Institutional Animal Care and Use Committee (IACUC) of Saint Louis University.

insulin secretion = settings: cited from earlier work
Cal27 xenograft = assay: Tumorigenicity assay, HNC xenograft model; format: in vivo, BALB/c athymic nude mice
Method: Figure 7 Therapeutic effect of momordicine-I in Cal27 xenograft model. Cal27 cells (1.5 × 10^6) cells were injected subcutaneously into the flank of nude mice. After formation of palpable tumor, mice were randomly divided into three groups (n = 5): Control (without any treatment), BME group (30% BME through drinking water) and M-I group (30 mg/kg IP, once in a day and every day). (A) Body weight was measured in control and treated mice. (B) Tumors were measured using a slide caliper and tumor volumes were calculated. Arrow indicates starting point BME/ M-I treatment. (C,D) Control or treated tumor lysates were subjected to Western blot analysis for c-Met and c-Myc expression using specific antibodies and representative bands are shown. The blot was reprobed with an antibody to Actin for normalization. […] Small bar indicates standard error (*, p < 0.05; **, p < 0.01; *** p < 0.001).
as §1

survivin = assay: Western blot of treated HNC cells; format: cell-based, human; settings: Cal27 and JHU029 cells, 48 hr; 2% BME or 10 µg/mL M-I
Method: Representative Western blot image for c-Myc, survivin and cyclin D1 expression in Cal27 and JHU029 cells with treatment of BME or M-I. The same membrane used in panel A was reprobed. Actin was used as internal control. Quantitative representation of Western blot band intensities (right panel). Small bar indicates standard error (*** p < 0.001).
Bitter melon extract (BME) was prepared from the Chinese variety of young bitter melons (raw and green) as described previously [17]. Briefly, BME was prepared by aqueous extraction from whole fruit without seeds using a household juicer at room temperature with subsequent centrifugation at 15000× g at 4 °C for 30 min. BME was stored at −80 °C for further analysis. Cal27 and JHU029 cells were treated with 2% BME and JHU022 cells were treated with 3% BME as described previously [17, 21]. […] The powder was dissolved in DMSO and added to the cells at different concentrations. Based on cytotoxicity data, Cal27 and JHU029 cells were treated with 10 µg/mL and JHU022 cells were treated with 20 µg/mL dose of M-I and incubated for 48 hr for further experiments. All the experiments were done at least in triplicate.
HRP conjugated anti-mouse or anti-rabbit secondary antibodies were purchased from Bio-Rad (Hercules, CA, USA). The blot was reprobed with HRP conjugated β-actin antibody (1:5000; SBT) to compare protein load in each lane. […]

rat cardiac fibroblasts = settings: cited from earlier work
[1] = Pharmacokinetic study, single dose IP or oral gavage; format: in vivo, C57Bl/6 male mice; settings: male C57Bl/6 mouse blood
[2] = as above; format: in vivo, C57Bl/6 male mice; settings: for AUC(0-t) / Tmax / AUC(0-inf) / Cmax / half-life: male, C57Bl/6, mouse; for AUC(0-inf): read-out: AUCINF_obs (converted); for Cmax / half-life: 20 mg/kg; for half-life: read-out: T½ (elimination half-life) (converted)
Method: To evaluate the pharmacokinetic (PK) profile of M-I, a single dose (20 mg/kg) was given to C57Bl/6 male mice by either intraperitoneal injection (IP group; n = 3) or oral ga-vage (oral group; n = 3). A dose of 20 mg/kg was chosen based on previous publications. The average plasma concentration ± standard deviation at each time point is shown in Figure 5A and corresponding PK parameters are summarized in Table 2. M-I was rapidly absorbed with a maximum plasma concentration 1 h post-IP and PO dose. […] The observed elimination half-life was 0.9 h in the IP group and 2 h in the PO group. The oral group had loose stool, starting four hours post-dose, which had not re-solved by 8 h but all mice appeared normal after twenty-four hours. […] We therefore selected IP administration of M-I for subsequence studies.
The pharmacokinetic (PK) study of M-I was performed in male C57Bl/6 mice. A sin-gle dose of M-I (formulated at 2 mg/mL dissolved in 5% DMSO/95% of a 30% w:v Captisol solution) was administered either by intraperitoneal injection (IP group, n = 3) or oral ga-vage (PO group, n = 3). After dosing, 20 µL blood samples were collected into heparin pre-coated tubes at 5 min, 15 min, 30 min, 1 h, 2 h, 4 h, 6 h, 8 h and 24 h. Samples were centrifuged, and the plasma collected. M-I concentration was determined using liq-uid chromatography-mass spectrometry/mass spectrometry (LC-MS/MS) as described earlier.

[3] = JHU029 xenograft tumor lysates, Western blot, vs untreated control tumors
[4] = Cal27 xenograft tumor lysates, Western blot, vs control

CC(C)=CC(O)CC(C)[C@H]1CC[C@@]2(C)[C@@H]3[C@@H](O)C=C4[C@@H](CC[C@H](O)C4(C)C)[C@]3(C=O)CC[C@]12C (stereo partly drawn) [M-I, (3S, 7S, 8S, 9R, 10R, 13R, 14S, 17R) 3,7-dihydroxy-17-(4-hydroxy-6-methylhept-5-en-2-yl)-4,4,13,14-tetramethyl-2,3,7,8,10,11, 12,15,16,17-decahydro-1H-cyclopenta[a]phenanthrene-9-carbaldehyde]
c-Met expression in tumors (JHU029 xenograft; [3]): significant reduction | c-Myc expression in tumors (JHU029 xenograft; [3]): significant reduction | tumor growth reduction, M-I compared with BME (JHU029 xenograft; JHU029 xenograft, nude mice, M-I 30 mg/kg IP once a day): better effect | tumor volume (JHU029 xenograft; JHU029 xenograft, nude mice, M-I 30 mg/kg IP once a day or 30% BME in drinking water, to day 32, vs untreated control): significantly reduced | sudden drop in body weight (JHU029 xenograft; JHU029 xenograft, three out of five mice on Day 20, weight gained back, M-I 30 mg/kg IP once a day): ~ 10% | insulin secretion in vitro (insulin secretion): stimulate insulin secretion | c-Met expression in tumors (Cal27 xenograft; [4]): significant reduction | c-Myc expression in tumors (Cal27 xenograft; [4]): significant reduction | reduction of tumor growth (Cal27 xenograft; Cal27 xenograft, nude mice, M-I 30 mg/kg IP once a day or 30% BME in drinking water): ~ 50% | body weight (Cal27 xenograft; Cal27 xenograft, throughout the experiment): increasing body weight | survivin expression (survivin): significant inhibition | effect on high-glucose-induced cell proliferation and collagen synthesis (rat cardiac fibroblasts): inhibitory effects | stability in mouse blood [1]: stable | adverse events in PK study ([2]; 20 mg/kg IP): No adverse events | AUC (%Extrap) ([2]; 20 mg/kg IP, plasma, mean ± SD): 0.33 ± 0.08% | AUC (%Extrap) ([2]; 20 mg/kg PO, plasma, mean ± SD): 6.84 ± 1.5% | T½ (elimination half-life) ([2]; 20 mg/kg PO, plasma, mean ± SD): 2.11 ± 0.3 h | adverse events in PK study ([2]; 20 mg/kg oral gavage, starting four hours post-dose, normal after twenty-four hours): loose stool | AUC(0-t) ([2]; 20 mg/kg IP, plasma, mean ± SD): 12700 ng·h/mL | Tmax ([2]; 20 mg/kg IP, plasma, mean ± SD): 1 h | AUC(0-inf) ([2]; 20 mg/kg IP, plasma, mean ± SD): 12800 ng·h/mL | AUC(0-t) ([2]; 20 mg/kg PO, plasma, mean ± SD): 643 ng·h/mL | Tmax ([2]; 20 mg/kg PO, plasma, mean ± SD): 1 ± 0.9 h | AUC(0-inf) ([2]; 20 mg/kg PO, plasma, mean ± SD): 688 ng·h/mL | Cmax ([2]; plasma, ip, 20 mg/kg IP, mean ± SD): 18 µM and 8430 ng/mL | half-life ([2]; plasma, ip, 20 mg/kg IP, plasma, mean ± SD): 0.9 ± 0.02 h | Cmax ([2]; plasma, po, 20 mg/kg PO, mean ± SD): 500 nM and 214 ng/mL | half-life ([2]; plasma, po, 20 mg/kg PO, plasma, mean ± SD): 2 h
